Measurements reported in ChEMBL document CHEMBL6103619, “Discovery of a Novel CRBN-Recruiting cGAS PROTAC Degrader for the Treatment of Ulcerative Colitis” (J Med Chem, 2025).

Experiments:
Type in all cases: cell-based
[1] = biological target: Protein cereblon/Cyclic GMP-AMP synthase (Homo sapiens, UniProt Q96SW2+Q8N884); test: PROTAC activity at CRBN/cGAS in human THP-1 cells assessed as induction of cGAS degradation at 10 uM preincubated with compound for 40 hrs followed by HT-DNA stimulation and measured after 8 hrs by Western blot analysis relative to control; settings: time 48.0 hrs
[2] = Inhibition of dsDNA-induced cGAS signaling pathway in mouse RAW-Lucia ISG cells preincubated with compound for 24 hrs followed by HT-DNA addition and measured after 24 hrs by QUANTI-Luc luciferase reagent based assay
[3] = Inhibition of dsDNA-induced cGAS signaling pathway in human THP1-Lucia ISG cells preincubated with compound for 24 hrs followed by HT-DNA addition and measured after 24 hrs by QUANTI-Luc luciferase reagent based assay

Protein cereblon/Cyclic GMP-AMP synthase, sequence (Q8N884 whole entry, looked up): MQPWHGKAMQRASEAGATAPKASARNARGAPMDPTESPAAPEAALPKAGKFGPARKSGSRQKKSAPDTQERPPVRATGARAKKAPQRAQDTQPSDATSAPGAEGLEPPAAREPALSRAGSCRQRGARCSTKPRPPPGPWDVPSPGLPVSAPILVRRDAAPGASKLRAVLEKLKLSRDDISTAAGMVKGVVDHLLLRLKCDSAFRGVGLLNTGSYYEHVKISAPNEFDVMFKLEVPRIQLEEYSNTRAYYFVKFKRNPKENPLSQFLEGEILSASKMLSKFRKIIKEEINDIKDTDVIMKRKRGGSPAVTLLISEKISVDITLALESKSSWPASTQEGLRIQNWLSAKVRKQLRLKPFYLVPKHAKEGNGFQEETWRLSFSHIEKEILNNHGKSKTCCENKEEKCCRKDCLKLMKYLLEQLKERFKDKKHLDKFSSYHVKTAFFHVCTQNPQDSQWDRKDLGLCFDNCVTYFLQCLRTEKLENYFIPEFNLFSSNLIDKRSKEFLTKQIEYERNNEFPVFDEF
Protein cereblon/Cyclic GMP-AMP synthase, sequence (Q96SW2 whole entry, looked up): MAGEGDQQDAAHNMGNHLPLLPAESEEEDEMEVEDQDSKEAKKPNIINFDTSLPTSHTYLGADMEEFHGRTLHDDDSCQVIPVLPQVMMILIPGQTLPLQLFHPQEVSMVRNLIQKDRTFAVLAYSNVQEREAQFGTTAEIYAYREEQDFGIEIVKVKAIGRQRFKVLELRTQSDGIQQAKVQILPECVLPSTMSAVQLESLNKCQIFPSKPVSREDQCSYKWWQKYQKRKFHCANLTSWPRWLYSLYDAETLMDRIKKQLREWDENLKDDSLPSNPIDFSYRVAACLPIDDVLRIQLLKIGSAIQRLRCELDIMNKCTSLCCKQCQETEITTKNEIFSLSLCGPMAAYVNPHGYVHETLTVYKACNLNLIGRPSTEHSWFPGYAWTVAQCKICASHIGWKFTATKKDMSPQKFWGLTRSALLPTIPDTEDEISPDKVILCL

SMILES	Activity [1]	IC50 [2]	IC50 [3]
Cn1ccc(-c2cc(Cl)c(Cl)c3[nH]c4c(c23)CN(C(=O)CNC(=O)COCCOCCNc2cccc3c2C(=O)N(C2CCC(=O)NC2=O)C3=O)CC4)n1 (stereo not drawn)	46.8%	> 50 µM	27.4 µM
Cn1ccc(-c2cc(Cl)c(Cl)c3[nH]c4c(c23)CN(C(=O)CCCCC#Cc2cccc3c2CN(C2CCC(=O)NC2=O)C3=O)CC4)n1 (stereo not drawn)	45.1%	> 50 µM	28.4 µM
O=C1CCC(N2C(=O)c3cccc(NCCCC(=O)N4CCC(Cn5cc(-c6cc(Cl)c(Cl)c7[nH]c8c(c67)CN(C(=O)CO)CC8)cn5)CC4)c3C2=O)C(=O)N1 (stereo not drawn)	4.7%	> 50 µM	> 50 µM
O=C1CCC(N2C(=O)c3cccc(NCCOCCOCCOCCOCCOCCC(=O)N4CCC(Cn5cc(-c6cc(Cl)c(Cl)c7[nH]c8c(c67)CN(C(=O)CO)CC8)cn5)CC4)c3C2=O)C(=O)N1 (stereo not drawn)	10.4%	> 50 µM	> 50 µM
Cn1ccc(-c2cc(Cl)c(Cl)c3[nH]c4c(c23)CN(C(=O)CNC(=O)CCCCCCNc2cccc3c2C(=O)N(C2CCC(=O)NC2=O)C3=O)CC4)n1 (stereo not drawn)	55.1%	28.3 µM	16.3 µM
O=C1CCC(N2C(=O)c3cccc(NCCCCC(=O)N4CCC(Cn5cc(-c6cc(Cl)c(Cl)c7[nH]c8c(c67)CN(C(=O)CO)CC8)cn5)CC4)c3C2=O)C(=O)N1 (stereo not drawn)	10.5%	> 50 µM	> 50 µM
Cn1ccc(-c2cc(Cl)c(Cl)c3[nH]c4c(c23)CN(C(=O)CNC(=O)CCCCC#Cc2cccc3c2C(=O)N(C2CCC(=O)NC2=O)C3=O)CC4)n1 (stereo not drawn)	48.5%	> 50 µM	18.9 µM
Cn1ccc(-c2cc(Cl)c(Cl)c3[nH]c4c(c23)CN(C(=O)CNC(=O)CCCCCCCCCCNc2cccc3c2C(=O)N(C2CCC(=O)NC2=O)C3=O)CC4)n1 (stereo not drawn)	20.4%	> 50 µM	38.8 µM
O=C1CCC(N2C(=O)c3cccc(NCCOCCOCCOCC(=O)N4CCC(Cn5cc(-c6cc(Cl)c(Cl)c7[nH]c8c(c67)CN(C(=O)CO)CC8)cn5)CC4)c3C2=O)C(=O)N1 (stereo not drawn)	13.9%	> 50 µM	> 50 µM
Cn1ccc(-c2cc(Cl)c(Cl)c3[nH]c4c(c23)CN(C(=O)CNC(=O)COCCNc2cccc3c2C(=O)N(C2CCC(=O)NC2=O)C3=O)CC4)n1 (stereo not drawn)	38.2%	> 50 µM	34.2 µM
Cn1ccc(-c2cc(Cl)c(Cl)c3[nH]c4c(c23)CN(C(=O)CNC(=O)CCCCC#Cc2cccc3c2CN(C2CCC(=O)NC2=O)C3=O)CC4)n1 (stereo not drawn)	57.7%	15.1 µM	8.8 µM
O=C1CCC(N2C(=O)c3cccc(NCCCCCCCC(=O)N4CCC(Cn5cc(-c6cc(Cl)c(Cl)c7[nH]c8c(c67)CN(C(=O)CO)CC8)cn5)CC4)c3C2=O)C(=O)N1 (stereo not drawn)	35.6%	> 50 µM	> 50 µM
Cn1ccc(-c2cc(Cl)c(Cl)c3[nH]c4c(c23)CN(C(=O)CNC(=O)CCCCCC#Cc2cccc3c2CN(C2CCC(=O)NC2=O)C3=O)CC4)n1 (stereo not drawn)	54.4%	25.3 µM	12.7 µM
O=C1CCC(N2C(=O)c3cccc(NCCCCCC(=O)N4CC(Cn5cc(-c6cc(Cl)c(Cl)c7[nH]c8c(c67)CN(C(=O)CO)CC8)cn5)C4)c3C2=O)C(=O)N1 (stereo not drawn)	36.3%	> 50 µM	> 50 µM
Cn1ccc(-c2cc(Cl)c(Cl)c3[nH]c4c(c23)CN(C(=O)CNC(=O)CCCCCNc2cccc3c2C(=O)N(C2CCC(=O)NC2=O)C3=O)CC4)n1 (stereo not drawn)	59.3%	26.7 µM	12.5 µM
Cn1ccc(-c2cc(Cl)c(Cl)c3[nH]c4c(c23)CN(C(=O)CNC(=O)CCC2CCN(C(=O)COc3cccc5c3C(=O)N(C3CCC(=O)NC3=O)C5=O)CC2)CC4)n1 (stereo not drawn)	18.9%	> 50 µM	> 50 µM
Cn1ccc(-c2cc(Cl)c(Cl)c3[nH]c4c(c23)CN(C(=O)CNC(=O)CCCCNc2cccc3c2C(=O)N(C2CCC(=O)NC2=O)C3=O)CC4)n1 (stereo not drawn)	61.5%	16.1 µM	8.1 µM
Cn1ccc(-c2cc(Cl)c(Cl)c3[nH]c4c(c23)CN(C(=O)CNC(=O)CCNc2cccc3c2C(=O)N(C2CCC(=O)NC2=O)C3=O)CC4)n1 (stereo not drawn)	42%	> 50 µM	35.1 µM
Cn1ccc(-c2cc(Cl)c(Cl)c3[nH]c4c(c23)CN(C(=O)CNC(=O)CCCC#Cc2ccc3c(c2)CN(C2CCC(=O)NC2=O)C3=O)CC4)n1 (stereo not drawn)	25.6%	> 50 µM	> 50 µM
Cn1ccc(-c2cc(Cl)c(Cl)c3[nH]c4c(c23)CN(C(=O)CCCCCCC#Cc2cccc3c2CN(C2CCC(=O)NC2=O)C3=O)CC4)n1 (stereo not drawn)	44.7%	> 50 µM	28.8 µM
Cn1ccc(-c2cc(Cl)c(Cl)c3[nH]c4c(c23)CN(C(=O)CNC(=O)CCCCCC#Cc2cccc3c2C(=O)N(C2CCC(=O)NC2=O)C3=O)CC4)n1 (stereo not drawn)	57.7%	> 50 µM	21.4 µM
